Data from patent publication US9518018B2, “3-alkoxy, thioalkyl and amino-4-amino-6-(substituted)picolinates and their use as herbicides” (Dow AgroSciences LLC, priority 2011, dated 2016).

Experiments:
ZEAMX: corn (Zea mays) = assay: Post-Emergent Test I herbicidal activity; assay type: in vivo; conditions: Zea mays, post-emergence, 336 h, read-out: Visual Growth Reduction (%)-14 Days after Application ZEAMX; for pest or weed control at 140 g/ha: Table 3, 140 g ai/ha; for pest or weed control at 70 g/ha: Table 3, 70 g ai/ha
Outline: (§1)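 Visual injury ratings (0 = none, 100 = complete kill) taken 14 d after treatment underlie these values, with GR20, GR50 and GR80 obtained by probit analysis. Plants were treated post-emergence at the first or second true-leaf stage by overhead spray at 187 L/ha.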

[1] = tested on: ABUTH: velvetleaf (Abutilon theophrasti); assay: Post-Emergent Test I herbicidal activity; assay type: in vivo; conditions: Abutilon theophrasti, post-emergence, 336 h, read-out: Visual Growth Reduction (%)-14 Days after Application ABUTH; for pest or weed control at 140 g/ha: Table 3, 140 g ai/ha; for pest or weed control at 70 g/ha: Table 3, 70 g ai/ha
Outline: as §1

[2] = tested on: CHEAL: lambsquarters (Chenopodium album); assay: Post-Emergent Test I herbicidal activity; assay type: in vivo; conditions: Chenopodium album, post-emergence, 336 h, read-out: Visual Growth Reduction (%)-14 Days after Application CHEAL; for pest or weed control at 140 g/ha: Table 3, 140 g ai/ha; for pest or weed control at 70 g/ha: Table 3, 70 g ai/ha
Outline: as §1

[3] = tested on: EPHHL: wild poinsettia (Euphorbia heterophylla); assay: Post-Emergent Test I herbicidal activity; assay type: in vivo; conditions: post-emergence, 336 h, read-out: Visual Growth Reduction (%)-14 Days after Application EPHHL; for pest or weed control at 140 g/ha: Table 3, 140 g ai/ha; for pest or weed control at 70 g/ha: Table 3, 70 g ai/ha
Outline: as §1

[4] = tested on: CYPES: yellow nutsedge (Cyperus esculentus); assay: Post-Emergent Test I herbicidal activity; assay type: in vivo; conditions: post-emergence, 336 h, read-out: Visual Growth Reduction (%)-14 Days after Application CYPES; for pest or weed control at 140 g/ha: Table 3, 140 g ai/ha; for pest or weed control at 70 g/ha: Table 3, 70 g ai/ha
Outline: as §1

[5] = tested on: ECHCG: barnyardgrass (Echinochloa crus-galli); assay: Post-Emergent Test I herbicidal activity; assay type: in vivo; conditions: post-emergence, 336 h, read-out: Visual Growth Reduction (%)-14 Days after Application ECHCG; for pest or weed control at 140 g/ha: Table 3, 140 g ai/ha; for pest or weed control at 70 g/ha: Table 3, 70 g ai/ha
Outline: (§2)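 Greenhouse-grown seedlings (peat-based mix, pH 6.0–6.8; ~15 h photoperiod, 23–29 °C day) were sprayed post-emergence at first/second true-leaf stage with compound in acetone/DMSO/aqueous crop-oil–surfactant carrier at 187 L/ha, using a twofold rate series. Injury was scored visually after 14 d (0–100%); GR20/GR50/GR80 derived by probit analysis.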

[6] = tested on: ORYSA: rice (Oryza sativa); assay: Post-Emergent Test I herbicidal activity; assay type: in vivo; conditions: post-emergence, 336 h, read-out: Visual Growth Reduction (%)-14 Days after Application ORYSA; for pest or weed control at 140 g/ha: Table 3, 140 g ai/ha; for pest or weed control at 70 g/ha: Table 3, 70 g ai/ha
Outline: as §2

Structure (SMILES) | pest or weed control at 140 g/ha (ZEAMX: corn (Zea mays)) [%] | pest or weed control at 140 g/ha [1] [%] | pest or weed control at 140 g/ha [2] [%] | pest or weed control at 140 g/ha [3] [%] | pest or weed control at 140 g/ha [4] [%] | pest or weed control at 140 g/ha [5] [%] | pest or weed control at 140 g/ha [6] [%] | melting point [°C] | other results
COc1c(C(=O)O)nc(-c2ccc(Cl)c(F)c2F)c(F)c1N [Compound 48] | 80 | 90 | 100 | 100 | 100 | 90 | 0 | 151 | –
COc1c(C(=O)O)nc(-c2ccc(Cl)c(F)c2)c(F)c1N [Compound 49] | 90 | 100 | 100 | 100 | 100 | 100 | 25 | 137 | –
COc1c(C(=O)O)nc(-c2ccc(C(F)(F)F)cc2)c(F)c1N [Compound 50] | 75 | 90 | 90 | 100 | 100 | 70 | 30 | 135 to 137 | –
COc1c(C(=O)O)nc(-c2ccc3c(c2)OCO3)c(F)c1N [Compound 53] | 75 | 80 | 100 | 0 | 100 | 80 | 15 | 223 to 225 | –
COc1c(C(=O)O)nc(-c2ccc(C(F)(F)F)c(F)c2F)c(F)c1N [Compound 56] | 75 | 80 | 90 | 100 | 50 | 100 | 10 | 133 to 135 | –
COc1c(C(=O)O)nc(-c2cc(F)c(Cl)cc2F)c(F)c1N [Compound 57] | – | – | – | – | – | – | – | 153.5 to 155 | pest or weed control at 70 g/ha (ZEAMX: corn (Zea mays)): 75%; pest or weed control at 70 g/ha [1]: 85%; pest or weed control at 70 g/ha [2]: 100%; pest or weed control at 70 g/ha [3]: 100%; pest or weed control at 70 g/ha [4]: 70%; pest or weed control at 70 g/ha [5]: 90%; pest or weed control at 70 g/ha [6]: 0%
CCc1nc(C(=O)O)c(OC)c(N)c1F [Compound 58] | – | – | – | – | – | – | – | 148.5 to 150.5 | pest or weed control at 280 g/ha (ZEAMX: corn (Zea mays); Table 3, 280 g ai/ha): 10%; pest or weed control at 280 g/ha ([1]; Table 3, 280 g ai/ha): 60%; pest or weed control at 280 g/ha ([2]; Table 3, 280 g ai/ha): 80%; pest or weed control at 280 g/ha ([3]; Table 3, 280 g ai/ha): 65%; pest or weed control at 280 g/ha ([4]; Table 3, 280 g ai/ha): 0%; pest or weed control at 280 g/ha ([5]; Table 3, 280 g ai/ha): 0%; pest or weed control at 280 g/ha ([6]; Table 3, 280 g ai/ha): 0%
COc1c(C(=O)O)nc(-c2cc(F)c(Br)cc2F)c(F)c1N [Compound 59] | – | – | – | – | – | – | – | 147 to 148 | pest or weed control at 70 g/ha (ZEAMX: corn (Zea mays)): 70%; pest or weed control at 70 g/ha [1]: 80%; pest or weed control at 70 g/ha [2]: 100%; pest or weed control at 70 g/ha [3]: 100%; pest or weed control at 70 g/ha [4]: 50%; pest or weed control at 70 g/ha [5]: 100%; pest or weed control at 70 g/ha [6]: 5%
COc1c(C(=O)O)nc(-c2cc(F)c(I)cc2F)c(F)c1N [Compound 60] | – | – | – | – | – | – | – | 132 to 134 | pest or weed control at 70 g/ha (ZEAMX: corn (Zea mays)): 75%; pest or weed control at 70 g/ha [1]: 60%; pest or weed control at 70 g/ha [2]: 90%; pest or weed control at 70 g/ha [3]: 100%; pest or weed control at 70 g/ha [4]: 50%; pest or weed control at 70 g/ha [5]: 95%; pest or weed control at 70 g/ha [6]: 15%
COc1c(C(=O)O)nc(-c2ccc(I)cc2F)c(F)c1N [Compound 62] | 75 | 15 | 100 | 100 | 50 | 100 | 8 | 143 to 145 | –
COc1c(C(=O)O)nc(-c2ccc(C(F)(F)F)nc2)c(F)c1N [Compound 63] | 80 | 90 | 100 | 100 | 100 | 95 | 50 | 160 to 162 | –
